What was measured:
Test in all cases: relative viability (nuclei count vs DMSO), 5 days (fraction); higher = more cells survive
AZ23 = compound: CC(C)Oc1cc(Nc2nc(N[C@@H](C)c3ccc(F)cn3)ncc2Cl)n[nH]1 [AZ23]
Method in brief: (§1)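 For viability, nuclei in each treated well were divided by nuclei in vehicle wells and the median across plates was taken. Lung cancer cell lines in 1536-well plates were pinned with five library-drug doses (not always all listed) spaced by √10, cultured 5 days without medium change, and imaged at 4× after Hoechst staining, with plates passing only at control CV below 25% and at least one doubling.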

HG-5-88-01 = compound: CC(C)S(=O)(=O)C1=CC=CC=C1NC2=NC(=NC(=C2Cl)N)NC3=C(C=C(C=C3)N4CCC(CC4)C(=O)N)OC [HG-5-88-01]
Method in brief: as §1

Embelin = compound: CCCCCCCCCCCC1=C(O)C(=O)C=C(O)C1=O [Embelin]
Method in brief: as §1

[1] = compound: C[C@@H]1CN(CC(=O)Nc2ccc3c(c2)Cc2cccc(-c4cc(=O)cc(N5CCOCC5)o4)c2S3)C[C@H](C)O1
Method in brief: as §1

Vatalanib = compound: Clc1ccc(Nc2nnc(Cc3ccncc3)c3ccccc23)cc1 [Vatalanib]
Method in brief: as §1

Cell Line	relative viability (AZ23; 0.01 µM)	relative viability (AZ23; 0.03162 µM)	relative viability (AZ23; 0.3162 µM)	relative viability (HG-5-88-01; 0.04 µM)	relative viability (HG-5-88-01; 0.1265 µM)	relative viability (HG-5-88-01; 0.4 µM)	relative viability (HG-5-88-01; 1.265 µM)	relative viability (HG-5-88-01; 4 µM)	relative viability (Embelin; 0.08 µM)	relative viability (Embelin; 0.8 µM)	relative viability (Embelin; 2.53 µM)	relative viability (Embelin; 8 µM)	relative viability ([1]; 0.04 µM)	relative viability ([1]; 0.1265 µM)	relative viability ([1]; 0.4 µM)	relative viability ([1]; 4 µM)	relative viability (Vatalanib; 0.04 µM)	relative viability (Vatalanib; 0.1265 µM)	relative viability (Vatalanib; 0.4 µM)	relative viability (Vatalanib; 1.265 µM)	relative viability (Vatalanib; 4 µM)
NCI-H661	1.05	1.04	0.967	0.992	1.01	1.1	1.01	1.01	1.01	1.06	1.02	1.04	0.864	0.97	0.951	0.916	0.975	0.971	0.983	0.906	0.988
NCI-H727	0.832	0.94	0.973	1.08	0.883	0.958	0.606	0.63	1.03	0.935	0.958	0.976	0.93	0.885	0.991	0.882	0.943	0.858	0.899	0.832	0.887
NCI-H838	0.987	0.993	1	0.978	1.03	0.79	0.676	0.655	0.982	1.05	1.06	0.896	0.887	0.93	0.883	0.813	1.02	0.928	1.09	0.945	0.942
NCI-H1299	1.06	1.01	1.1	0.987	1.02	0.992	0.99	1.02	1.04	1.05	0.994	1.02	1.05	0.989	1	0.898	1.05	1.01	1.02	1	1.01
NCI-H1355	1.14	1.03	1.03	1.01	1.06	0.932	0.943	0.698	0.996	1.16	1.03	0.775	0.984	0.964	0.959	0.852	1.03	0.99	1.07	0.938	0.969
NCI-H1395	–	1.01	0.849	0.9	0.97	0.921	0.953	0.876	0.941	1.15	0.857	0.617	0.854	0.816	0.761	0.999	0.939	0.871	0.863	0.813	0.885
NCI-H1437	1.02	1.09	1	1.04	1.04	0.995	0.917	1.01	0.961	1.11	1.04	0.709	0.977	0.995	1.06	0.885	0.984	0.987	1.01	0.938	0.969
NCI-H1563	1.06	1.02	0.967	1.02	0.932	0.974	0.811	1.19	0.946	1.17	0.978	0.978	0.947	0.901	0.941	0.935	1.04	0.889	1.03	0.918	0.937

— the supplement of paper PMC10307832
